{"source": "patent US20220015363A1", "about": "“SMALL MOLECULE PATHOGEN DISPERSAL AGENT” (The Trustees of Princeton University, priority 2020, published 2022)", "key": {"[1]": {"system": "P. aeruginosa", "test": "orientation of surface attachment (vertical vs horizontal) of cells", "assay_type": "cell-based", "details": "10 mM MHQ; ntotal=1331; PBS control 76%", "experimental": "Upon treatment with phosphate buffered saline (PBS), 76% (ntotal=1347) of the cells attached to the surface vertically. In contrast, upon treatment with, e.g., 10 mM MHQ, only 5% (ntotal=1331) of the cells attached to the surface vertically. A similar behavior is found between MHQ-treated WT cells and mutants lacking Type IV pilin subunits (PilA), as only 7% (ntotal=1995) of ΔpilA cells were attached vertically even in PBS treatment."}, "[2]": {"system": "type IV pili (T4P) twitching motility", "test": "twitching assay (spread under agar, crystal violet staining)", "assay_type": "cell-based, P. aeruginosa", "text": "Since T4P is required for twitching motility, the dispersing compound's effect on a pathogen can be seen in a twitching assay. In this assay, cells are placed underneath agar and allowed to spread from their starting spot along the bottom surface of a Petri dish. The extent of this spread is visualized with crystal violet staining and quantified. In the presence of agar made with LB, WT cells traveled 11±0.7 mm (mean±SD) from the starting spot. […] The effect of MHQ on twitching depended on T4P, as ΔpilA cells that lack T4P traveled similar distances away from the starting spot in the absence of MHQ (1.9±0.1 mm) or in the presence of MHQ (2.3±0.3 mm)."}, "[3]": {"system": "T4P activity", "test": "T4P dynamics imaging by cysteine-labeling of PilA", "assay_type": "cell-based, P. aeruginosa", "details": "2 mM MHQ for 5 min; n=493; PBS control 77%", "experimental": "To directly assay the effect of a dispersing compound on T4P activity, the recently developed cysteine-labeling approach can be used to fluorescently label T4P and image their dynamics. This approach uses a cysteine point mutation in an unstructured loop of the PilA pilin subunit to label the pili through maleimide-based click chemistry. In one experiment, the pili of untreated cells were labeled and then imaged T4P dynamics after a brief (5 min) exposure to MHQ or PBS control. Following a 5 min mock treatment with PBS, T4P were seen extending and retracting from 77% of the cells (n=473). […] Since the T4P was labeled before MHQ treatment and the treatment was brief, this effect cannot be attributed to effects of MHQ on TFP expression or labeling. Similar results can be seen with other disclosed dispersing compounds."}}, "data": [{"smiles": "Cc1cc(O)c2ccccc2n1", "note": "[MHQ, 2-methyl-4-hydroxyquinoline]", "values": [{"measurement": "cells attached to the surface vertically", "setting": "[1]", "result": 5, "unit": "%"}, {"measurement": "distance traveled from the starting spot", "setting": "[2]; WT cells, agar made with LB and 2 mM MHQ, mean±SD, LB alone 11±0.7 mm", "result": "7±0.5", "unit": "mm"}, {"measurement": "distance traveled from the starting spot", "setting": "[2]; ΔpilA cells that lack T4P, in the presence of MHQ, without MHQ 1.9±0.1 mm", "result": "2.3±0.3", "unit": "mm"}, {"measurement": "cells exhibiting any T4P extension or retraction events", "setting": "[3]", "result": 4, "unit": "%"}]}]}
